Source: patent publication US20160067162A1, “PHOTOPROTECTIVE COMPOUNDS, COMPOSITIONS INCLUDING SAME AND USES THEREOF” (UNIVERSITE DE RENNES 1, priority 2013, published 2016)

What was measured:
Assay type in all cases: physicochemical
[1] = UV spectrum measurement in CHCl3 (λmax, molar extinction coefficient); settings: for λmax exp: 10^−4 M in CHCl3; for ε (molar extinction coefficient at the λmax): 10^−4 M in CHCl3, 1 cm cuvette
Method: The products are diluted in CHCl3 so as to obtain a solution at 10^−4M. The UV spectra are measured using a Uvikon 931 UV-vis spectrophotometer, Serlabo Technologies, Entraigues sur la Sorgue, France. This UV spectrum makes it possible to determine the molar extinction coefficient (mol^−1 L cm^−1) at the λmax by virtue of the Beer-Lambert law: c=A/l×C;
A=value of the absorbance at the λmax; l=length of the cuvette in cm (l=1);
C=concentration of the solution=1×10^−4 mol/l. The theoretical λmax was determined for certain products by DFT calculation.

[2] = SPF measurement, Protocol I (Rennes): simplified O/W emulsion, UV spectrum 200-400 nm; settings: for λc p.I: critical wavelength; for λc p.I / Colipa UVA-PF p.I, at 10% / SPF p.I, at 10%: protocol I; for Colipa UVA-PF p.I, at 10%: product at 10%; for SPF p.I, at 10%: product at 10% in simplified O/W emulsion; for UVA/UVB: ratio of area under the curve 315-400 nm to 280-315 nm
Method: The SPF measurement is carried out according to the following protocol described in Le Dévéhat F., Malargé A., Couteau C., Coiffard L., Legouin B. “Evaluation of a new UV-filter screening method”, 4th symposium of the AFERP “Biodiversity, chimie des substances naturelles et medicaments” [“Biodiversity, chemistry of natural substances and medicaments”] and 3rd Franco-Pakistani symposium, Besançon (France), Jul. 16-17-18, 2010. A solution of each product dissolved in dimethyl sulfoxide is incorporated at 10% into a simplified emulsion of oil-in-water (O/W) type consisting of liquid paraffin, water and SDS at 10%, the whole mixture taken up in absolute ethanol. The UV spectrum of each solution is recorded between 200 nm and 400 nm in a 10 mm quartz cell on a Uvikon 931 UV-vis spectrophotometer and measured in comparison with a control 10% emulsion solution.
(§1) The SPF and UVA-PF values are, for the two protocols, calculated from the following equations: […]
(§2) where Eλ is the erythemogenic effect of the radiation at the wavelength λ; Sλ is the spectral solar irradiance at the wavelength λ and Tλ is the spectral transmittance of the product at the wavelength λ, λc is the critical wavelength which corresponds to the wavelength at which 90% of the area under the curve (AUC) is integrated between 290 and 400 nm. The UVA/UVB ratio corresponds more specifically to the ratio of the area under the curve between 315 and 400 nm to the area under the curve between 280 and 315 nm.

[3] = SPF measurement, Protocol II (Nantes): O/W emulsion on PMMA plate, transmission with integrating sphere; settings: for λc (p.II): critical wavelength; for SPF (p.II, at 1%): product at 1% in O/W emulsion, PMMA plate, 290-400 nm; for Colipa UVA-PF (p.II, at 1%): product at 1%, 320-400 nm
Method: The SPF measurement is carried out according to the protocol described in Lohézic-Le Dévéhat F., Legouin B., Couteau C., Boustie J., Coiffard L. “Lichenic extracts and metabolites as UV filters” Journal of Photochemistry and Photobiology B: Biology 120 (2013) 17-28:
An emulsion having the following formulation is used: […]
The two phases are prepared separately. The hydrophilic phase is then added, with stirring, to the lipophilic phase. The products are finally incorporated at 1% into this O/W emulsion. 30 mg of the whole mixture are distributed over the entire surface area (25 cm^2) of a PMMA plate using a finger store. After spreading, 15 mg remain on the finger store. Three plates are prepared per product and nine measurements are carried out. The transmission measurements between 290 and 400 nm for the SPF and between 320 and 400 nm for the UVA-PF are carried out using a spectrophotometer equipped with an integrating sphere (UV Transmittance analyzer UV1000S, Labsphere, North Sutton, US).
as §1, §2

Molecule	λmax exp [1]	ε (molar extinction coefficient at the λmax) [1]	λc p.I [2]	Colipa UVA-PF p.I, at 10% [2]	SPF p.I, at 10% [2]	UVA/UVB [2]	λc (p.II) [3]	SPF (p.II, at 1%) [3]	Colipa UVA-PF (p.II, at 1%) [3]	Colipa UVA-PF p.I, at 10% ([2]; listed as oxybenzone)
O=C1C=C(c2ccc(Cl)cc2)NCC1 [Compound 1, 6-(4-chlorophenyl)-2,3-dihydropyridin-4(1H)-one]	328 nm	8131 L/mol/cm	366 nm	3.97 ± 0.15	2.27 ± 0.06	4.78 ± 0.57				
O=C1C=C(c2ccc(F)cc2)NCC1 [Compound 2, 6-(4-fluorophenyl)-2,3-dihydropyridin-4(1H)-one]	326 nm	10924 L/mol/cm	361 nm	5.85 ± 0.16	4.30 ± 0.12	3.08 ± 0.00	383 nm	1.81 ± 0.11	1.95 ± 0.12	
COc1ccc(C2=CC(=O)CCN2)cc1 [Compound 3, 6-(4-methoxyphenyl)-2,3-dihydropyridin-4(1H)-one]	330 nm	16259 L/mol/cm	362 nm	9.16 ± 0.10	4.30 ± 0.12	2.85 ± 0.01	384 nm	1.25 ± 0.04	1.33 ± 0.04	
CN(C)c1ccc(C2=CC(=O)CCN2)cc1 [Compound 4, 6-(4-(dimethylamino)phenyl)-2,3-dihydropyridin-4(1H)-one]	355 nm	26286 L/mol/cm	361 nm	42.67 ± 1.16	9.24 ± 0.18	5.19 ± 0.01	387 nm	1.72 ± 0.08	1.88 ± 0.09	
CC(C)(C)OC(=O)NC1=C(c2ccccc2)N(C(=O)OC(C)(C)C)CCC1=O [Compound 6, tert-butyl 5-(tert-butoxycarbonylamino)-4-oxo-6-phenyl-3,4-dihydropyridine-1(2H)-carboxylate]	322 nm	11206 L/mol/cm	351 nm	1.56 ± 0.04	2.04 ± 0.09	1.24 ± 0.0				
CCOC(=O)/C=C/C1=C(c2ccccc2)N(C(=O)OC(C)(C)C)CCC1=O [Compound 7, (E)-tert-butyl 5-(3-ethoxy-3-oxoprop-1-enyl)-4-oxo-6-phenyl-3,4-dihydropyridine-1(2H)-carboxylate]	343 nm	15426 L/mol/cm	375 nm	2.92 ± 0.17	1.61 ± 0.13	6.36 ± 1.16				
CCOC(=O)/C=C/C1=C(c2ccccc2)NCCC1=O [Compound 8, (E)-ethyl 3-(4-oxo-2-phenyl-1,4,5,6-tetrahydropyridin-3-yl)acrylate]	306 nm	16596 L/mol/cm	378 nm	5.38 ± 0.16	6.73 ± 0.27	2.22 ± 0.01				
CCOC(=O)/C=C/C1=C(c2ccccc2)N[C@@H](COCc2ccccc2)CC1=O [Compound 9, (R,E)-ethyl 3-(6-(benzyloxymethyl)-4-oxo-2-phenyl-1,4,5,6-tetrahydropyridin-3-yl)acrylate]	308 nm	31339 L/mol/cm	353 nm	3.54	5.40 ± 0.43	1.84				
COc1cc(OC)cc(C2=CC(=O)CCN2C(=O)OC(C)(C)C)c1 [Compound 10, tert-butyl 6-(3,5-dimethoxyphenyl)-4-oxo-3,4-dihydropyridine-1(2H)-carboxylate]	310 nm	18622 L/mol/cm	334 nm	1.88 ± 0.01	5.54 ± 0.66	0.49 ± 0.15				
COc1ccc2cc(C3=CC(=O)CCN3C(=O)OC(C)(C)C)ccc2c1 [Compound 11, tert-butyl 6-(6-methoxynaphthalen-2-yl)-4-oxo-3,4-dihydropyridine-1(2H)-carboxylate]	331 nm	14280 L/mol/cm	362 nm	4.70 ± 0.42	5.50 ± 0.62	1.92 ± 0.01				
CC(C)(C)OC(=O)N1CCC(=O)C=C1c1ccc(Oc2ccccc2)cc1 [Compound 12, tert-butyl 4-oxo-6-(4-phenoxyphenyl)-3,4-dihydropyridine-1(2H)-carboxylate]	316 nm	20575 L/mol/cm	340 nm	1.98 ± 0.05	5.31 ± 0.45	0.71 ± 0.01				
COc1ccc2cc(C3=CC(=O)CCN3)ccc2c1 [Compound 15, 6-(6-methoxynaphthalen-2-yl)-2,3-dihydropyridin-4(1H)-one]	337 nm	15578 L/mol/cm	368 nm	7.41 ± 1.34	5.89 ± 0.99	2.65 ± 0.01				
COc1ccccc1C1=CC(=O)CCN1 [Compound 16, 6-(2-methoxyphenyl)-2,3-dihydropyridin-4(1H)-one]	333 nm	13110 L/mol/cm	358 nm	4.96 ± 0.18	5.94 ± 0.34	2.12				
CCCC1=C(/C=C/C(=O)OCC)C(=O)C[C@H](Cc2ccccc2)N1 [Compound 17, (S,E)-ethyl 3-(6-benzyl-4-oxo-2-propyl-1,4,5,6-tetrahydropyridin-3-yl)acrylate]	316 nm	20260 L/mol/cm	353 nm	4.88 ± 0.11	13.28 ± 0.66	1.46 ± 0.01				
CN1C=C(NC(=O)OC(C)(C)C)C(=O)CC1 [Compound 18, tert-butyl 1-methyl-4-oxo-1,4,5,6-tetrahydropyridin-3-ylcarbamate]	355 nm	8618 L/mol/cm	368 nm	3.49 ± 0.17	2.67 ± 0.08	3.05 ± 0.04				
CCCCC(CC)COC(=O)c1ccc(Nc2nc(Nc3ccc(C(=O)NC(C)(C)C)cc3)nc(Nc3ccc(C(=O)OCC(CC)CCCC)cc3)n2)cc1 (stereo not shown) [Diethylhexyl Butamido Triazone, reference compound]				1.27 ± 0.01	10.10 ± 0.02	0.12 ± 0.01				
CC1CC(OC(=O)c2ccccc2O)CC(C)(C)C1 (stereo not shown) [Homosalate, reference compound]			323 ± 1 nm	1.08 ± 0.00	1.91 ± 0.04	0.17 ± 0.00				
COc1ccc(C(=O)c2ccccc2)c(O)c1 [Oxybenzone, reference compound]			349 ± 1 nm	2.63 ± 0.01	5.27 ± 0.25	0.98 ± 0.00				2.63
PEG-25 PABA [reference compound]			324 ± 1 nm	1.11 ± 0.01	2.04 ± 0.05	0.19 ± 0.01				
